pIC50: −log10 of the molar value.
Key:
[1] = Cytotoxicity against human HCT116 cells after 48 hrs by MTT assay; format: functional, cell-based; conditions: HCT-116, 48 h
[2] = Cytotoxicity against human DLD1 cells after 48 hrs by MTT assay; format: functional, cell-based; conditions: DLD-1, 48 h
[3] = tested on: MDA-MB-231; experiment: Cytotoxicity against human MDA-MB-231 cells after 48 hrs by MTT assay; format: functional, cell-based; conditions: MDA-MB-231, 48 h
[4] = tested on: HUVEC; experiment: Cytotoxicity against HUVEC cells after 48 hrs by MTT assay; format: cell-based; conditions: Homo sapiens

| SMILES | pIC50 [1] | pIC50 [2] | pIC50 [3] | pIC50 [4] |
| --- | --- | --- | --- | --- |
| Nc1nc(-c2ccccc2)cn1/N=C/c1cc2ccccc2nc1Cl | 5.16 | 4.79 | 4.31 | 4.33 |
| Cc1ccc(-c2cn(/N=C/c3cc4ccccc4nc3Cl)c(N)n2)cc1 | < 4.30 | < 4.30 | < 4.30 | < 4.30 |
| COc1ccc(-c2cn(/N=C/c3cc4ccccc4nc3Cl)c(N)n2)cc1 | 4.50 | < 4.30 | < 4.30 | 4.91 |
| Nc1nc(-c2ccc(Cl)cc2)cn1/N=C/c1cc2ccccc2nc1Cl | < 4.30 | < 4.30 | < 4.30 | 4.55 |
| Nc1nc(-c2ccc(Br)cc2)cn1/N=C/c1cc2ccccc2nc1Cl | < 4.30 | 4.62 | < 4.30 | 4.92 |
| Cc1ccc2nc(Cl)c(/C=N/n3cc(-c4ccccc4)nc3N)cc2c1 | 5.15 | 5.06 | 4.32 | 4.38 |
| Cc1ccc(-c2cn(/N=C/c3cc4cc(C)ccc4nc3Cl)c(N)n2)cc1 | 4.40 | 4.60 | 4.65 | 4.74 |
| COc1ccc(-c2cn(/N=C/c3cc4cc(C)ccc4nc3Cl)c(N)n2)cc1 | < 4.30 | 4.59 | 4.63 | 4.91 |
| Cc1ccc2nc(Cl)c(/C=N/n3cc(-c4ccc(Cl)cc4)nc3N)cc2c1 | < 4.30 | 4.41 | 4.45 | 4.41 |
| Cc1ccc2nc(Cl)c(/C=N/n3cc(-c4ccc(Br)cc4)nc3N)cc2c1 | 4.30 | 4.41 | 4.42 | 4.87 |
| Nc1nc(-c2cccc3ccccc23)cn1/N=C/c1cc2ccccc2nc1Cl | 5.20 | 5.02 | < 4.30 | < 4.30 |
| Nc1nc(-c2ccc3ccccc3c2)cn1/N=C/c1cc2ccccc2nc1Cl | < 4.30 | < 4.30 | < 4.30 | 4.44 |
| Cc1ccc2nc(Cl)c(/C=N/n3cc(-c4cccc5ccccc45)nc3N)cc2c1 | 5.23 | 5.08 | < 4.30 | 5.02 |
| Cc1ccc2nc(Cl)c(/C=N/n3cc(-c4ccc5ccccc5c4)nc3N)cc2c1 | 4.56 | 4.99 | 4.45 | 4.95 |
| Nc1nc(-c2cccs2)cn1/N=C/c1cc2ccccc2nc1Cl | 5.14 | 4.99 | < 4.30 | 4.99 |
| Cc1ccc2nc(Cl)c(/C=N/n3cc(-c4cccs4)nc3N)cc2c1 | 5.11 | 5.05 | < 4.30 | 4.42 |
| COc1cccc2c1C(=O)c1c(O)c3c(c(O)c1C2=O)C[C@@](O)(C(=O)CO)C[C@@H]3O[C@H]1C[C@H](N)[C@H](O)[C@H](C)O1 [DOXORUBICIN] | 6.47 | 6.08 | 5.83 |  |
